Test results reported in ChEMBL document CHEMBL4706771, “Discovery of Orally Bioavailable Ligand Efficient Quinazolindiones as Potent and Selective Tankyrases Inhibitors” (ACS Med Chem Lett, 2021).

Key:
[1] = target: T1, Poly [ADP-ribose] polymerase tankyrase-2 (Homo sapiens, UniProt Q9H2K2); test: Inhibition of human TNKS2 incubated for 1 to 2 hrs by fluorescence polarization assay
T1 sequence (Q9H2K2 whole entry): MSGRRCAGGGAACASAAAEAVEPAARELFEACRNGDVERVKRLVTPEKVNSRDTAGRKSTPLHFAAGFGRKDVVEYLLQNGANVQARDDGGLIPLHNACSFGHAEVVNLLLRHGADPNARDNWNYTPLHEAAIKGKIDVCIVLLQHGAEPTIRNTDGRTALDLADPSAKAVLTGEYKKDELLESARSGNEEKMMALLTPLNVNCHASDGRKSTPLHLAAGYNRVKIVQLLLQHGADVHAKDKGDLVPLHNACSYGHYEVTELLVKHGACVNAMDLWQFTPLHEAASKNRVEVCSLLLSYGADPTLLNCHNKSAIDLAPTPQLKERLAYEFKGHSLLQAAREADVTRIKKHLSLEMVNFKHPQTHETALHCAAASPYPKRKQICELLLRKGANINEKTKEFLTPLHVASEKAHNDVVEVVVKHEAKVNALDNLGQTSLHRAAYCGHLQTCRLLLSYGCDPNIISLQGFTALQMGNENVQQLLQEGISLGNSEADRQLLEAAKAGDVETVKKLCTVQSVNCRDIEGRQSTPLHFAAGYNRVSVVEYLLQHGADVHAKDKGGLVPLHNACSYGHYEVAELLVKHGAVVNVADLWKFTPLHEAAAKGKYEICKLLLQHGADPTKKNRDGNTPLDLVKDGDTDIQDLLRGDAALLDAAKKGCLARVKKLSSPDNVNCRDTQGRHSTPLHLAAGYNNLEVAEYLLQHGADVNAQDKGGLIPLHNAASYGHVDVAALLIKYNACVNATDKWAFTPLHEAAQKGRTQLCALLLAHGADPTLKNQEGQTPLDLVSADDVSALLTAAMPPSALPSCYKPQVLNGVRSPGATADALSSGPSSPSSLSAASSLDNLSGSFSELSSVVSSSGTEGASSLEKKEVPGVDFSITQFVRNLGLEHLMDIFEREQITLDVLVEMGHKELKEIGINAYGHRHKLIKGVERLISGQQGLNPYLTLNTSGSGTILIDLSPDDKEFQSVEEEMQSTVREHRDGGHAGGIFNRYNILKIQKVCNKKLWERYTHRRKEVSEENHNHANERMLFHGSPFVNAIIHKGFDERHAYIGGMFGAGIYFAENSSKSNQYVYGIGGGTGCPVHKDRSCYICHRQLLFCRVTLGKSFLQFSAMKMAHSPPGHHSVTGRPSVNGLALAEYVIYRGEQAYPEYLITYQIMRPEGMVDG

[2] = Inhibition of Wnt/beta-catenin (unknown origin) expressed in human HEK293 cells expressing MSRII transfected with DNA-LF2K incubated for 24 hrs by luciferase reporter gene assay; conditions: HEK293, 24 h
[3] = target: T2, Poly [ADP-ribose] polymerase tankyrase-1 (Homo sapiens, UniProt O95271); test: Inhibition of human TNKS1 incubated for 1 to 2 hrs by fluorescence polarization assay
T2 sequence (O95271 whole entry): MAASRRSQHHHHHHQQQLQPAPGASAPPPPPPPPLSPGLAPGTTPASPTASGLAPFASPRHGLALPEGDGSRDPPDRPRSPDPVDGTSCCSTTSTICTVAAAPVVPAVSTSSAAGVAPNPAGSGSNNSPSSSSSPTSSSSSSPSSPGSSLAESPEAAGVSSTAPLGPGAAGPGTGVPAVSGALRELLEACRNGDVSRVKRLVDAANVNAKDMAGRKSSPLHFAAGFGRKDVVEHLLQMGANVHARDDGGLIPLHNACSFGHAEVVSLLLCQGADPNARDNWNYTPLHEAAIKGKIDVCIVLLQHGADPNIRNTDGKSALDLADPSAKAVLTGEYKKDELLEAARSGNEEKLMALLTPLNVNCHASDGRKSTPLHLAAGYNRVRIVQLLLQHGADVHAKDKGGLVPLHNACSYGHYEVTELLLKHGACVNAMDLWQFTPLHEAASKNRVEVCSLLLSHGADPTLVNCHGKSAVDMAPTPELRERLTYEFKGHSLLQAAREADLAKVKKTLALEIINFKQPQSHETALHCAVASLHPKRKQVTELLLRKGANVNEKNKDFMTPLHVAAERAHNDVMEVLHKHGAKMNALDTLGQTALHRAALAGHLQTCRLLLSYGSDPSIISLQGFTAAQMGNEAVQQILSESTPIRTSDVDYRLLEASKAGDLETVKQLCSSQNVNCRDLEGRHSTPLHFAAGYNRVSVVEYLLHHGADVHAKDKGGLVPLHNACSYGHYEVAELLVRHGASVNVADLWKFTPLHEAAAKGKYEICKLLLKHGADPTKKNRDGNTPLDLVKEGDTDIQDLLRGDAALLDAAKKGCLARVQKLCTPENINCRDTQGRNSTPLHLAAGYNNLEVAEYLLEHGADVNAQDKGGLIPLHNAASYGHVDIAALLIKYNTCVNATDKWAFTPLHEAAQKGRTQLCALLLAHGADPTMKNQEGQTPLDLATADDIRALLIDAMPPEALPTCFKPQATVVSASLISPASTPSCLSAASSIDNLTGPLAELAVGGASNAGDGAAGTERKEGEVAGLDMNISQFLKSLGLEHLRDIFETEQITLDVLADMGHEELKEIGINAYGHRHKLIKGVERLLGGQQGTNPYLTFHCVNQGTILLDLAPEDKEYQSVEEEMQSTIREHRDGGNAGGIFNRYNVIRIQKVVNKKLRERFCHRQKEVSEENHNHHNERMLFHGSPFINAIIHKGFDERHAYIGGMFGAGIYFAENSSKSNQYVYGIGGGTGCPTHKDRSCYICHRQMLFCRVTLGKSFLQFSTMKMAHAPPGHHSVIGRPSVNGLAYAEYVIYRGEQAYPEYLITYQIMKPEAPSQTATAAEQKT

[4] = Half life in Sprague-Dawley rat at 0.5 mg/kg, iv; type: ADME, organism-based; conditions: in vivo
[5] = Volume of distribution in Sprague-Dawley rat at 0.5 mg/kg, iv; type: ADME, organism-based; conditions: in vivo
[6] = Clearance in Sprague-Dawley rat at 0.5 mg/kg, iv; type: ADME, organism-based; conditions: in vivo
[7] = Clearance in Sprague-Dawley rat at 5 mg/kg, po or 2 mg/kg, iv; type: ADME, organism-based; conditions: in vivo
[8] = Half life in Sprague-Dawley rat at 5 mg/kg, po or 2 mg/kg, iv; type: ADME, organism-based; conditions: in vivo
[9] = Dose normalised AUC in Sprague-Dawley rat at 5 mg/kg, po; type: ADME, organism-based; conditions: in vivo
[10] = Volume of distribution in Sprague-Dawley rat at 5 mg/kg, po or 2 mg/kg, iv; type: ADME, organism-based; conditions: in vivo
[11] = Oral bioavailability in Sprague-Dawley rat at 5 mg/kg; type: ADME, organism-based; conditions: in vivo
[12] = Half life in Sprague-Dawley rat at 10 mg/kg, po or 0.5 mg/kg, iv; type: ADME, organism-based; conditions: in vivo
[13] = Volume of distribution in Sprague-Dawley rat at 10 mg/kg, po or 0.5 mg/kg, iv; type: ADME, organism-based; conditions: in vivo
[14] = Oral bioavailability in Sprague-Dawley rat at 10 mg/kg; type: ADME, organism-based; conditions: in vivo
[15] = Dose normalised AUC in Sprague-Dawley rat at 10 mg/kg, po; type: ADME, organism-based; conditions: in vivo
[16] = Clearance in Sprague-Dawley rat at 10 mg/kg, po or 0.5 mg/kg, iv; type: ADME, organism-based; conditions: in vivo

| SMILES | IC50 [2] | IC50 [3] | also measured |
| --- | --- | --- | --- |
| N#Cc1ccccc1Cn1c(=O)n(C[C@H]2CC[C@H](C(=O)NCc3ccccc3)CC2)c(=O)c2ccccc21 | > 5 µM | 0.631 µM | IC50 [1]: 7.94 µM |
| Cc1c(F)ccc2c1c(=O)n(C[C@H]1CC[C@H](C(=O)Nc3ccncc3)CC1)c(=O)n2Cc1cccc(C(F)(F)F)c1C#N | 0.0158 µM | 0.0032 µM | – |
| COc1cccc2c1c(=O)n(C[C@H]1CC[C@H](C(=O)O)CC1)c(=O)n2Cc1cccc(C(F)(F)F)c1C#N | 0.02 µM | 0.0081 µM | – |
| N#Cc1ccccc1Cn1c(=O)n(C[C@H]2CC[C@H](C(=O)Nc3ccncc3)CC2)c(=O)c2nc[nH]c21 | 0.251 µM | 0.1 µM | – |
| Cc1cccc2c1c(=O)n(C[C@H]1CC[C@H](C(=O)Nc3ccncc3)CC1)c(=O)n2Cc1cccc(Cl)c1C#N | 0.0063 µM | 0.002 µM | half-life [4]: 37.2 min; Vd [5]: 2.1 L/kg; clearance [6]: 45.9 mL/min/kg |
| Cc1c(C(N)=O)ccc2c1c(=O)n(C[C@H]1CC[C@H](C(=O)Nc3ccncc3)CC1)c(=O)n2Cc1cccc(C(F)(F)F)c1C#N | 0.0631 µM | 0.0251 µM | – |
| Cc1cccc2c1c(=O)n(C[C@H]1CC[C@H](C(=O)Nc3ccncc3)CC1)c(=O)n2Cc1cccc(C(F)(F)F)c1C#N | 0.0398 µM | 0.0032 µM | – |
| N#Cc1c(Cn2c(=O)n(C[C@H]3CC[C@H](C(=O)Nc4ccncc4)CC3)c(=O)c3ccccc32)cccc1C(F)(F)F | 0.0126 µM | 0.002 µM | – |
| N#Cc1c(Cn2c(=O)n(C[C@H]3CC[C@H](C(=O)Nc4ccncc4)CC3)c(=O)c3c(Cl)cccc32)cccc1C(F)(F)F | 0.0063 µM | 0.0032 µM | – |
| Cc1cccc2c1c(=O)n(C[C@H]1CC[C@H](C(=O)Nc3ccnnc3)CC1)c(=O)n2Cc1cccc(C(F)(F)F)c1C#N | 0.0316 µM | 0.0025 µM | – |
| COc1cccc2c1c(=O)n(C[C@H]1CC[C@H](C(=O)Nc3ccncc3)CC1)c(=O)n2Cc1cccc(C(F)(F)F)c1C#N | 0.0126 µM | 0.004 µM | – |
| N#Cc1c(Cn2c(=O)n(C[C@H]3CC[C@H](C(=O)O)CC3)c(=O)c3c(Cl)cccc32)cccc1C(F)(F)F | 0.0631 µM | 0.0158 µM | – |
| Cc1cccc(Cn2c(=O)n(C[C@H]3CC[C@H](C(=O)Nc4ccncc4)CC3)c(=O)c3c(C)cccc32)c1C#N | 0.0316 µM | 0.002 µM | – |
| N#Cc1c(Cn2c(=O)n(C[C@H]3CC[C@H](C(=O)O)CC3)c(=O)c3ccccc32)cccc1C(F)(F)F | 0.0631 µM | – | clearance [7]: 1.88 mL/min/kg; half-life [8]: 312 min; AUC/dose [9]: 1293 ng·h/mL; Vd [10]: 0.81 L/kg; bioavailability [11]: 14.5% |
| N#Cc1c(Cn2c(=O)n(C[C@H]3CC[C@H](C(=O)Nc4ccncc4)CC3)c(=O)c3c(F)cccc32)cccc1C(F)(F)F | 0.0158 µM | 0.004 µM | – |
| Cc1ccc2c(c1C)c(=O)n(C[C@H]1CC[C@H](C(=O)O)CC1)c(=O)n2Cc1cccc(C(F)(F)F)c1C#N | 0.251 µM | 0.0158 µM | – |
| Cc1cccc2c1c(=O)n(C[C@H]1CC[C@H](C(=O)Nc3cnn(C)c3)CC1)c(=O)n2Cc1cccc(C(F)(F)F)c1C#N | 0.01 µM | 0.0025 µM | – |
| N#Cc1c(Cn2c(=O)n(C[C@H]3CC[C@H](C(=O)O)CC3)c(=O)c3c(F)cccc32)cccc1C(F)(F)F | 0.0631 µM | 0.0398 µM | – |
| Cc1c(F)ccc2c1c(=O)n(C[C@H]1CC[C@H](C(=O)O)CC1)c(=O)n2Cc1cccc(C(F)(F)F)c1C#N | 0.02 µM | – | – |
| Cc1ccc2c(c1C)c(=O)n(C[C@H]1CC[C@H](C(=O)Nc3ccncc3)CC1)c(=O)n2Cc1cccc(C(F)(F)F)c1C#N | 0.0251 µM | 0.0063 µM | – |
| N#Cc1ccccc1Cn1c(=O)n(C[C@H]2CC[C@H](C(=O)Nc3ccncc3)CC2)c(=O)c2ccncc21 | 0.0251 µM | 0.0631 µM | – |
| Cc1cccc2c1c(=O)n(C[C@H]1CC[C@H](C(=O)Nc3ccncc3)CC1)c(=O)n2Cc1ccccc1C#N | 0.01 µM | 0.0032 µM | – |
| N#Cc1ccccc1Cn1c(=O)n(C[C@H]2CC[C@H](C(=O)Nc3ccncc3)CC2)c(=O)c2ncccc21 | 0.0794 µM | 0.126 µM | – |
| N#Cc1ccccc1Cn1c(=O)n(C[C@H]2CC[C@H](C(=O)Nc3ccncc3)CC2)c(=O)c2ccccc21 | 0.0063 µM | 0.004 µM | half-life [12]: 43.2 min; Vd [13]: 4.42 L/kg; bioavailability [14]: 3.6%; AUC/dose [15]: 37.7 ng·h/mL; clearance [16]: 91.2 mL/min/kg |
| Cc1ccc(NC(=O)[C@H]2CC[C@H](Cn3c(=O)c4c(C)cccc4n(Cc4cccc(C(F)(F)F)c4C#N)c3=O)CC2)cn1 | 0.0158 µM | 0.004 µM | – |
